This is an account of results in article PMC7110988 (Chemistry & Biology, 2005).

For one series, the target named is E. coli DnaB helicase (Escherichia coli, UniProt P0ACB0). Type of series: biochemical.
The target of series [1] is SCV helicase (nsp13) ATPase activity (Severe acute respiratory syndrome coronavirus, UniProt P0C6X7). The series is described as follows: biochemical. Also on record: species or system SARS coronavirus.
Series [2] concerns SCV (strain GZ50) in FRhK-4 cells. The series is classed as cell-based, SARS coronavirus. Conditions: 50 μM.
In series [3] the target is SCV helicase helicase activity (Severe acute respiratory syndrome coronavirus, UniProt P0C6X7). The series is classed as biochemical, SARS coronavirus.
Series [4] relates to SCV (strain GZ50) in FRhK-4 cells. Description: microbe, parasite or virus in culture. Type of series: cell-based, SARS coronavirus.
For series [5], the target named is SCV helicase (nsp13) unstimulated ATPase activity (Severe acute respiratory syndrome coronavirus, UniProt P0C6X7). The series is classed as biochemical, SARS coronavirus.
The test system of another series is SARS coronavirus (SCV). The settings on record: cited from earlier work.

One may read the IC50 as the concentration that gives 50% inhibition. Read a low IC50 as greater potency. What is called EC50 is the concentration giving half of the maximal effect.

“Also recorded” adds a separate entry of the source.

E. coli DnaB helicase, sequence (P0ACB0 whole entry): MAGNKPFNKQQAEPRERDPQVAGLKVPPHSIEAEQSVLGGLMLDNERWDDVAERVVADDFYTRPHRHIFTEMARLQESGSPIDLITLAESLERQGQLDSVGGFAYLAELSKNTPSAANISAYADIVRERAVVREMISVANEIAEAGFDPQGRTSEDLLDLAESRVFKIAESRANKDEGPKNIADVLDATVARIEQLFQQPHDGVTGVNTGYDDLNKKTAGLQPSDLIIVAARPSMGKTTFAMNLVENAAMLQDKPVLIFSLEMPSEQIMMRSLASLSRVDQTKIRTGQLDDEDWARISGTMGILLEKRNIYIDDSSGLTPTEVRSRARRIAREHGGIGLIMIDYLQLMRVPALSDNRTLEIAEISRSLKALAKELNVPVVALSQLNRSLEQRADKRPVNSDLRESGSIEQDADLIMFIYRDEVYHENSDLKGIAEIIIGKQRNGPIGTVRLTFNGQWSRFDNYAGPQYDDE

On to `Cc1ncc(CO)c(C23OC4(O)CC(O)(CC(O)(C4)O2)O3)c1O` [bananin, 1-[3-hydroxy-5-(hydroxymethyl)-2-methyl-4-pyridinyl]-2,8,9-trioxaadamantane-3,5,7-triol], for which the “Inhibition of DnaB helicase” value on E. coli DnaB helicase was “did not inhibit”. In series [1], the IC50 was 2.3 µM and the “Mechanism of inhibition of ATPase activity” value is reported as “noncompetitive inhibitor”. Besides, the “Cytopathic effects relative to control infection” value in series [2] is recorded as “distinctly reduced”. In series [3], the “Inhibition of helicase activity (in words)” value (“Inhibition … (in words)” for short) is “effective inhibitors; also recorded: the best inhibitors of DNA-unwinding”. Further, the “Specificity index (CC50/EC50)” value with FRhK-4 cells was “over 39”. In addition, in series [4], the “Reduction of viral titre” value was around 50%; the Viral titre result was “almost zero”; the “Viral titre, % of untreated control infection” value is on record as “below 10%”. Further, the EC50 in series [4] (Severe acute respiratory syndrome coronavirus, FRhK-4, read-out: EC50 (antiviral, viral titre)) is below 10 µM. Besides, the “Inhibition of unstimulated basal ATPase activity” value in series [5] was “not an effective inhibitor; also recorded: Far weaker inhibition”. Besides, the “Inhibition of unstimulated basal ATPase activity at 100 µM” value in series [5] (100 µM) was “slight inhibition”.
On to `NC(=O)c1ncn([C@@H]2O[C@H](CO)[C@@H](O)[C@H]2O)n1` [ribavirin], for which the “Activity in cell culture” value with SARS coronavirus (SCV) is listed as “lack of activity”.
`COc1cc(C23OC4(O)CC(O)(CC(O)(C4)O2)O3)ccc1O` [vanillinbananin, 1-(4-hydroxy-3-methoxyphenyl)-2,8,9-trioxaadamantane-3,5,7-triol] displayed an IC50 in series [1] of 0.68 µM. Also, the “Inhibition … (in words)” value in series [3] is “effective inhibitors; also recorded: the best inhibitors of DNA-unwinding”.
In the case of `COc1cc(CC(C)c2nc(C)c(O)c(C34OC5(O)CC(O)(CC(O)(C5)O3)O4)c2CO)ccc1O` (racemic) [eubananin, 1-[6-[(2RS)-1-(4-hydroxy-3-methoxyphenyl)-2-propyl]-3-hydroxy-5-(hydroxymethyl)-2-methyl-4-pyridinyl]-2,8,9-trioxaadamantane-3,5,7-triol], the IC50 in series [1] worked out at 2.8 µM. For the same molecule, the “Inhibition … (in words)” value in series [3] is reported as “effective inhibitors; also recorded: the best inhibitors of DNA-unwinding”.
